Reference: the NIST ThermoML archive (doi:10.1016/j.jct.2012.06.009)
Numbers after ± are expanded uncertainties.

Assay: activity coefficient (dimensionless); of the first substance listed, at infinite dilution; xn = mol fraction of the nth substance listed
Conditions: 101 kPa, Liquid, Chromatography, x1 = 0

activity coefficient (333.26 K) | activity coefficient (333.38 K) | activity coefficient (353.25 K) | activity coefficient (353.3 K) | activity coefficient (314.1 K) | activity coefficient (314.24 K) | SMILES | also measured
1.3 ± 0.11 | 1.3 ± 0.11 | 1.19 ± 0.099 | 1.19 ± 0.099 | 1.39 ± 0.12 | 1.42 ± 0.12 | CC(C)O [propan-2-ol] + CCCCCCCCCCCCCC(=O)O | –
1.39 ± 0.12 | 1.39 ± 0.12 | 1.35 ± 0.12 | 1.31 ± 0.11 | 1.44 ± 0.12 | 1.46 ± 0.12 | C1CCCCC1 [cyclohexane] + CCCCCCCCCC(=O)O | –
– | 1.84 ± 0.16 | – | 1.57 ± 0.13 | – | 2.14 ± 0.18 | CO [methanol] + CCCCCCCCCC(=O)O | activity coefficient (353.08 K): 1.46 ± 0.12
0.832 ± 0.069 | 0.818 ± 0.068 | – | 0.839 ± 0.07 | 0.81 ± 0.068 | 0.81 ± 0.068 | ClC(Cl)Cl [trichloromethane] + CCCCCCCCCCCC(=O)O | –
1.22 ± 0.1 | 1.21 ± 0.1 | – | 1.18 ± 0.098 | – | 1.24 ± 0.1 | C=CCCCC [hex-1-ene] + CCCCCCCCCCCCCC(=O)O | –
1.54 ± 0.13 | 1.51 ± 0.13 | 1.34 ± 0.11 | 1.36 ± 0.11 | – | 1.7 ± 0.14 | CCCCO [butan-1-ol] + CCCCCCCCCCCC(=O)O | –
1.2 ± 0.1 | 1.19 ± 0.099 | 1.18 ± 0.098 | 1.18 ± 0.097 | – | 1.22 ± 0.1 | CCc1ccccc1 [ethylbenzene] + CCCCCCCCCCCC(=O)O | –
– | 1.25 ± 0.1 | 1.2 ± 0.1 | 1.2 ± 0.1 | 1.29 ± 0.11 | 1.28 ± 0.11 | C1CCCCC1 [cyclohexane] + CCCCCCCCCCCC(=O)O | –
0.739 ± 0.063 | 0.74 ± 0.063 | 0.746 ± 0.064 | 0.727 ± 0.062 | 0.743 ± 0.063 | 0.743 ± 0.063 | ClC(Cl)Cl [trichloromethane] + CCCCCCCCCCCCCC(=O)O | –
– | 1.17 ± 0.097 | 1.06 ± 0.088 | 1.08 ± 0.089 | 1.28 ± 0.11 | 1.3 ± 0.11 | CCC(C)O (centres undefined) [butan-2-ol] + CCCCCCCCCCCC(=O)O | –
– | 1.79 ± 0.15 | 1.56 ± 0.13 | 1.57 ± 0.13 | 1.92 ± 0.17 | 2.02 ± 0.17 | CCO [ethanol] + CCCCCCCCCCCC(=O)O | –
1.48 ± 0.13 | – | 1.34 ± 0.11 | 1.32 ± 0.11 | – | – | CCCCO [butan-1-ol] + CCCCCCCCCC(=O)O | activity coefficient (333.35 K): 1.53 ± 0.13
1.37 ± 0.12 | – | 1.33 ± 0.11 | 1.35 ± 0.11 | – | – | COc1ccccc1 [anisole] + CCCCCCCCCCCC(=O)O | activity coefficient (343.65 K): 1.35 ± 0.11

More lines, now with the values behind:

SMILES | activity coefficient (333.26 K) | activity coefficient (333.38 K) | activity coefficient (353.25 K) | activity coefficient (353.3 K) | activity coefficient (314.1 K) | activity coefficient (314.24 K) | also measured
ClCc1ccccc1 [(chloromethyl)benzene] + CCCCCCCCCCCCCC(=O)O | 1.61 ± 0.14 | 1.6 ± 0.14 | 1.57 ± 0.13 | 1.55 ± 0.13 | – | – | –
C1CCCCC1 [cyclohexane] + CCCCCCCCCCCCCC(=O)O | – | 1.07 ± 0.088 | 1.05 ± 0.087 | 1.02 ± 0.085 | 1.09 ± 0.09 | 1.09 ± 0.09 | –
ClC=C(Cl)Cl [trichloroethene] + CCCCCCCCCCCC(=O)O | 0.944 ± 0.078 | 0.951 ± 0.078 | 0.933 ± 0.077 | – | 0.952 ± 0.078 | 0.967 ± 0.079 | –
C=CCCCC [hex-1-ene] + CCCCCCCCCC(=O)O | 1.5 ± 0.13 | 1.49 ± 0.13 | – | 1.43 ± 0.12 | – | 1.56 ± 0.13 | –
CCCCCC [hexane] + CCCCCCCCCCCCCC(=O)O | – | – | – | – | – | – | activity coefficient (338.27 K): 1.34 ± 0.11; activity coefficient (348.3 K): 1.33 ± 0.11; activity coefficient (358.33 K): 1.33 ± 0.11
COc1ccccc1 [anisole] + CCCCCCCCCCCCCCCC(=O)O | – | – | – | – | – | – | activity coefficient (340.19 K): 1.3 ± 0.11; activity coefficient (348.01 K): 1.28 ± 0.11; activity coefficient (358.22 K): 1.25 ± 0.1
CCc1ccccc1 [ethylbenzene] + CCCCCCCCCC(=O)O | 1.28 ± 0.11 | – | – | 1.22 ± 0.1 | – | – | activity coefficient (333.35 K): 1.3 ± 0.11
CCOC(C)=O [ethyl acetate] + CCCCCCCCCC(=O)O | 1.25 ± 0.1 | 1.3 ± 0.11 | 1.21 ± 0.1 | – | 1.33 ± 0.11 | – | –
Clc1ccccc1 [chlorobenzene] + CCCCCCCCCC(=O)O | 1.16 ± 0.096 | 1.18 ± 0.098 | 1.17 ± 0.097 | 1.15 ± 0.096 | – | – | –
Clc1ccccc1 [chlorobenzene] + CCCCCCCCCCCC(=O)O | 1.08 ± 0.089 | – | 1.07 ± 0.088 | – | 1.11 ± 0.091 | 1.12 ± 0.092 | activity coefficient (343.65 K): 1.07 ± 0.089
CCc1ccccc1 [ethylbenzene] + CCCCCCCCCCCCCCCC(=O)O | – | – | – | – | – | – | activity coefficient (340.19 K): 1.04 ± 0.085; activity coefficient (348.01 K): 1.05 ± 0.086; activity coefficient (358.22 K): 1.06 ± 0.087
CC(C)O [propan-2-ol] + CCCCCCCCCCCCCCCC(=O)O | – | – | – | – | – | – | activity coefficient (340.19 K): 1.47 ± 0.12; activity coefficient (348.01 K): 1.41 ± 0.12; activity coefficient (358.32 K): 1.29 ± 0.11
ClC=C(Cl)Cl [trichloroethene] + CCCCCCCCCCCCCCCC(=O)O | – | – | – | – | – | – | activity coefficient (340.19 K): 0.831 ± 0.069; activity coefficient (348.01 K): 0.826 ± 0.069; activity coefficient (358.22 K): 0.831 ± 0.069
CC(C)CC(C)(C)C [2,2,4-trimethylpentane] + CCCCCCCCCCCC(=O)O | 1.7 ± 0.14 | 1.72 ± 0.15 | 1.67 ± 0.14 | 1.69 ± 0.14 | 1.75 ± 0.15 | 1.77 ± 0.15 | –
CCCCCC [hexane] + CCCCCCCCCCCCCCCC(=O)O | – | – | – | – | – | – | activity coefficient (340.19 K): 1.29 ± 0.11; activity coefficient (348.01 K): 1.3 ± 0.11; activity coefficient (358.22 K): 1.3 ± 0.11
ClC=C(Cl)Cl [trichloroethene] + CCCCCCCCCCCCCC(=O)O | 0.842 ± 0.07 | 0.838 ± 0.07 | 0.842 ± 0.07 | 0.824 ± 0.069 | 0.847 ± 0.07 | 0.843 ± 0.07 | –
ClCCCl [1,2-dichloroethane] + CCCCCCCCCCCCCCCC(=O)O | – | – | – | – | – | – | activity coefficient (340.19 K): 1.22 ± 0.1; activity coefficient (348.01 K): 1.19 ± 0.099; activity coefficient (358.22 K): 1.14 ± 0.095
CCCCCCC [heptane] + CCCCCCCCCCCCCCCC(=O)O | – | – | – | – | – | – | activity coefficient (340.19 K): 1.4 ± 0.12; activity coefficient (348.01 K): 1.38 ± 0.12; activity coefficient (358.22 K): 1.37 ± 0.12
ClC=C(Cl)Cl [trichloroethene] + CCCCCCCCCC(=O)O | 1 ± 0.082 | 1.01 ± 0.083 | – | 0.969 ± 0.08 | 1.05 ± 0.086 | 1.04 ± 0.085 | activity coefficient (353.08 K): 0.945 ± 0.078
CCC(C)O (centres undefined) [butan-2-ol] + CCCCCCCCCCCCCCCC(=O)O | – | – | – | – | – | – | activity coefficient (340.19 K): 1.26 ± 0.1; activity coefficient (348.01 K): 1.2 ± 0.1; activity coefficient (358.32 K): 1.12 ± 0.092
COc1ccccc1 [anisole] + CCCCCCCCCC(=O)O | – | – | 1.43 ± 0.12 | 1.45 ± 0.12 | – | – | –
C=CCCCC [hex-1-ene] + CCCCCCCCCCCC(=O)O | – | – | – | – | – | – | activity coefficient (329.2 K): 1.39 ± 0.12; activity coefficient (343.39 K): 1.39 ± 0.12; activity coefficient (358.06 K): 1.34 ± 0.11
Clc1ccccc1 [chlorobenzene] + CCCCCCCCCCCCCCCC(=O)O | – | – | – | – | – | – | activity coefficient (340.19 K): 0.974 ± 0.08; activity coefficient (348.01 K): 0.957 ± 0.079; activity coefficient (358.22 K): 0.974 ± 0.08
CO [methanol] + CCCCCCCCCCCCCCCC(=O)O | – | – | – | – | – | – | activity coefficient (340.17 K): 2.09 ± 0.18; activity coefficient (347.93 K): 1.94 ± 0.17; activity coefficient (358.23 K): 1.8 ± 0.15
